# System: colon adenocarcinoma C51
# Experiment: Antitumor effect and safety of CPT-11, combretastatin and their combinations in mice bearing colon adenocarcinoma C51
# Format: in vivo
# Experimental: This efficacy may be quantified, for example by the log10 cells killed, which is determined by the following formula:
# log10 cells killed=T−C(days)/3.32×Td
# in which T−C represents the time taken for the cells to grow, which is the mean time in days for the tumors of the treated group (T) to reach a predetermined value (1 g for example) and the tumors of the control group (C) to reach the same value, and Td represents the time in days needed for the volume of the tumors in the control group to double. (T. H. Corbett et al., Cancer, 40, 2660.2680 (1977); F. M. Schabel et al., Cancer Drug Development, Part B, Methods in Cancer Research, 17, 3-51, New York, Academic Press Inc. (1979)). A product is considered to be active if log10 cells killed is greater than or equal to 0.7. A product is considered to be very active if the log10 cells killed is greater than 2.8.
# The effect of the combination of CPT-11 and combretastatin was evaluated in mice bearing colon adenocarcinoma C51. CPT-11 was given orally on days two through five, […], at different dosage levels. Combretastatin was administered intravenously, two times a day, on days one to five. In the combination arms, three different dosages of CPT-11 were administered orally twice daily on days two through five and three different dosages of combretastatin were administered intravenously twice a day on days one through five.
# Combretastatin, administered intravenously, and CPT-11, administered orally, were tested in several different schedules as reported in Table IV. When used as a single agent, combretastatin was administered twice a day for five consecutive days. When CPT-11 was administered alone, it was given once a day for four consecutive days.
# When administered sequentially, two schedules were used. When combretastatin was given first, it was administered on day 1, followed by administration of CPT-11 once a day on days 2-5. When CPT-11 was the first compound given in the sequence, it was administered once a day on days 1-4, followed by combretastatin on day 5.
Compound,"highest non-toxic dose (CPT-11 oral, single agent, mice)","Log10 Cell Kill (single agent CPT-11 oral 400 mg/kg (highest non-toxic dose), Colon 51, tumor size 400-500 mg, Td = 2.4 d)",Colon 51 PR (partial response: mice with decrease in tumor volume of at least 50% / mice tested) (single agent combretastatin IV 116.5 mg/kg/injection (highest non-toxic dose)),"Log10 Cell Kill (single agent combretastatin IV 116.5 mg/kg/injection (highest non-toxic dose), 2 x/day days 1-5, Colon 51)"
"CCc1c2c(nc3ccc(OC(=O)N4CCC(N5CCCCC5)CC4)cc13)-c1cc3c(c(=O)n1C2)COC(=O)[C@]3(O)CC [CPT-11, irinotecan]",400 mg/kg,1.1,–,–
Combretastatin,–,–,5/5,1.3

# — patent US6562834B2, “Combination comprising camptothecin and a stilbene derivative for the treatment of cancer” (Aventis Pharma S. A., priority 2000, dated 2003)
